Source: US20230102554A1 (GB002, INC., priority 2019, published 2023)

Key:
[1] = target: T1, Human PDGFRα, cytoplasmic domain (GST-PDGFRα) (Homo sapiens, UniProt P16234); assay: Human PDGFRα biochemical inhibition assay (off-chip Mobility Shift Assay)
T1 construct: made in house

[2] = target: T2, Human PDGFRβ, cytoplasmic domain (GST-PDGFRβ) (Homo sapiens, UniProt P09619); assay: Human PDGFRβ biochemical inhibition assay (off-chip Mobility Shift Assay)
T2 construct: made in house
Outline: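 GST-tagged cytoplasmic domain (aa 557-1106) from baculovirus was incubated 1 h at room temperature with compound, CSKtide, ATP at Km and Mg²⁺ in HEPES buffer, pH 7.5. Phosphorylated and unphosphorylated peptide were separated by off-chip mobility shift, and the product ratio P/(P+S) gave percent inhibition.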

T1 sequence (P16234 550-1089 T674I): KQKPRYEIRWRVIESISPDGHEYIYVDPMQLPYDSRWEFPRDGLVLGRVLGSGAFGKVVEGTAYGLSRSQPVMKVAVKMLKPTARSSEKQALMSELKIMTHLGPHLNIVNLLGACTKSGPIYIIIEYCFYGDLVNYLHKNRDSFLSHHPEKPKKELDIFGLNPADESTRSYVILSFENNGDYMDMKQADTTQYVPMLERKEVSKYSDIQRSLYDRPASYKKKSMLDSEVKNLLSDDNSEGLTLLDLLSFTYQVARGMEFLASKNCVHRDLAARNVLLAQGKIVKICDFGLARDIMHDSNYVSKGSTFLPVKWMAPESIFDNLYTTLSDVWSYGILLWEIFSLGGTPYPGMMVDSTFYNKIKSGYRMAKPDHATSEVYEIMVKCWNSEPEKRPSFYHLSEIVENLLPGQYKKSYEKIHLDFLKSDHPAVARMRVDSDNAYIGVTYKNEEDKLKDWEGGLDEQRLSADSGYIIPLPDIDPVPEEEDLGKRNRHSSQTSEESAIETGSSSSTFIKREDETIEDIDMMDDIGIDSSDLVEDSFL
T2 sequence (P09619 with tags, fused parts or gaps): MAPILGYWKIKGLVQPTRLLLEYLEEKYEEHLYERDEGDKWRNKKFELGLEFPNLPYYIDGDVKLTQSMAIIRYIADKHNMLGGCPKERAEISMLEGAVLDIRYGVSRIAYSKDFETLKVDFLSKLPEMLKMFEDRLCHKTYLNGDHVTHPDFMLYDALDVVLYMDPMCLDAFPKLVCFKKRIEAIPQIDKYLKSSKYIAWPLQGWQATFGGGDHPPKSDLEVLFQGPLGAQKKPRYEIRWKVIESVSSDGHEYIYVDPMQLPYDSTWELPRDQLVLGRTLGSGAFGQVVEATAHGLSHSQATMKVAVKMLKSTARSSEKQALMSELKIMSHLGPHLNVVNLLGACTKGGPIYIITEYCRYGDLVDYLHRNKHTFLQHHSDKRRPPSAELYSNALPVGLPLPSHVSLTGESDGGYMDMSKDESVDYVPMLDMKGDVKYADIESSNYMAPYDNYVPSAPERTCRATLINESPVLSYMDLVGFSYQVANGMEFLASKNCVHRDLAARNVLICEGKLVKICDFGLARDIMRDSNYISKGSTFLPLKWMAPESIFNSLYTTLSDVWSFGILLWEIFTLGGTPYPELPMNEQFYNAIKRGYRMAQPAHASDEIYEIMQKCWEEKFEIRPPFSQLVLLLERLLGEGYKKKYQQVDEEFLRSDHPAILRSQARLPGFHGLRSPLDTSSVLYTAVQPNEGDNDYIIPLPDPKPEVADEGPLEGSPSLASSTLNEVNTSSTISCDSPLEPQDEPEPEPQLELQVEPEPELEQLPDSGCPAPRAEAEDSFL

| SMILES | IC50 [1] [nM] | IC50 [2] [nM] |
| --- | --- | --- |
| C[C@H](Nc1cnc2cnn(C)c2n1)c1cccc(NC(=O)[C@H]2C[C@H]2C(F)(F)F)c1 [Compound 53, (1S,2R)-N-(3-((S)-1-((1 methyl-1H-pyrazolo[3,4-d]pyrazin-6-yl)amino)ethyl)phenyl)-2-(trifluoromethyl)cyclopropane-1-carboxamide] | ≥ 1000 | ≥ 1000 |
| Cc1cc(C(=O)Nc2cccc([C@H](C)Nc3cnc4[nH]nc(C)c4n3)c2)cnc1C(F)(F)F [Compound 538, (S)-5-methyl-N-(3-(1-((3-methyl-1H-pyrazolo[3,4-b]pyrazin-5-yl)amino)ethyl)phenyl)-6-(trifluoromethyl) nicotinamide] | < 300 | < 300 |
| Cc1cc(C(=O)Nc2cccc([C@H](C)Nc3cnc4cnn(C)c4n3)c2)cnc1OC(C)C [Compound 248, (S)-6-isopropoxy-5-methyl-N-(3-(1-((1-methyl-1H-pyrazolo[3,4-b]pyrazin-6-yl)amino)ethyl)phenyl) nicotinamide] | < 300 | < 300 |
| CCOc1cncc(C(=O)Nc2cccc([C@H](C)Nc3cnc4cnn(C)c4n3)c2)c1 [Compound 242, (S)-5-ethoxy-N-(3-(1-((1-methyl-1H-pyrazolo[3,4-b]pyrazin-6-yl)amino)ethyl)phenyl)nicotinamide] | < 300 | < 300 |
| C[C@H](Nc1cnc2cnn(C)c2n1)c1cccc(NC(=O)c2cncc(C3CC3)c2)c1 [Compound 105, (S)-5-cyclopropyl-N-(3-(1-((1-methyl-1H-pyrazolo[3,4-b]pyrazin-6-yl)amino)ethyl)phenyl)nicotinamide] | < 300 | < 300 |
| C[C@H](Nc1cnc2cnn(C)c2n1)c1cccc(NC(=O)c2cc(C(F)(F)F)nn2C)c1 [Compound 160, (S)-1-methyl-N-(3-(1-((1-methyl-1H-pyrazolo[3,4-b]pyrazin-6-yl)amino)ethyl)phenyl)-3-(trifluoromethyl)-1H-pyrazole-5-carboxamide] | < 300 | < 300 |
| CCn1cc2ncc(N[C@@H](C)c3cc(NC(=O)c4cnc(OCC5CC5)c(C)c4)ccc3F)nc2n1 [Compound 318, (S)-6-(cyclopropylmethoxy)-N-(3-(1-((2-ethyl-2H-pyrazolo[3,4-b]pyrazin-6-yl)amino)ethyl)-4-fluorophenyl)-5-methylnicotinamide] | < 300 | < 300 |
| CCn1cc2ncc(N[C@@H](C)c3cc(NC(=O)Cc4cncc(F)c4)ccc3F)nc2n1 [Compound 653, (S)-N-(3-(1-((2-ethyl-2H-pyrazolo[3,4-b]pyrazin-6-yl)amino)ethyl)-4-fluorophenyl)-2-(5-fluoropyridin-3-yl)acetamide] | < 300 | ≥ 1000 |
| CCn1cc2ncc(N[C@@H](C)c3cccc(NC(=O)c4cnc(N5CCCC5)c(C)c4)c3)nc2n1 [Compound 323, (S)-N-(3-(1-((2-ethyl-2H-pyrazolo[3,4-b]pyrazin-6-yl)amino)ethyl)phenyl)-5-methyl-6-(pyrrolidin-1-yl)nicotinamide] | < 300 | < 300 |
| CCn1cc2ncc(N[C@@H](C)c3cc(NC(=O)Cc4ccc(Cl)c(C)n4)ccc3C)nc2n1 [Compound 670, (S)-2-(5-chloro-6-methylpyridin-2-yl)-N-(3-(1-((2-ethyl-2H-pyrazolo[3,4-b]pyrazin-6-yl)amino)ethyl)-4-methylphenyl)acetamide] | < 300 | < 300 |
| CSc1ncc(C(=O)Nc2cccc([C@H](C)Nc3cnc4cnn(C)c4n3)c2)cc1C [Compound 223, (S)-5-methyl-N-(3-(1-((1-methyl-1H-pyrazolo[3,4-b]pyrazin-6-yl)amino)ethyl)phenyl)-6-(methylthio)nicotinamide] | < 300 | < 300 |
| Cc1cncc(C(=O)Nc2cccc([C@H](C)Nc3cnc4cc(C)oc4n3)c2)c1 [Compound 17, (S)-5-methyl-N-(3-(1-((6-methylfuro[2,3-b]pyrazin-3-yl)amino)ethyl)phenyl)nicotinamide] | < 300 | < 300 |
| CCn1cc2ncc(N[C@@H](C)c3cccc(NC(=O)c4ccc(F)c(C)c4)c3)nc2n1 [Compound 330, (S)-N-(3-(1-((2-ethyl-2H-pyrazolo[3,4-b]pyrazin-6-yl)amino)ethyl)phenyl)-4-fluoro-3-methylbenzamide] | < 300 | < 300 |
| CCn1cc2ncc(N[C@@H](C)c3cccc(NC(=O)c4cnc(C(C)O)s4)c3)nc2n1 (stereo partly drawn) [Compound 381, N-(3-((S)-1-((2-ethyl-2H-pyrazolo[3,4-b]pyrazin-6-yl)amino)ethyl)phenyl)-2-(1-hydroxyethyl)thiazole-5-carboxamide] | < 300 | 300 to 1000 |
| CCn1cc2ncc(N[C@@H](C)c3cc(NC(=O)c4cnn(CCF)c4)ccc3F)nc2n1 [Compound 311, (S)-N-(3-(1-((2-ethyl-2H-pyrazolo[3,4-b]pyrazin-6-yl)amino)ethyl)-4-fluorophenyl)-1-(2-fluoroethyl)-1H-pyrazole-4-carboxamide] | < 300 | < 300 |
| Cc1ncc(C(=O)Nc2cccc([C@H](C)Nc3cnc4[nH]cc(-c5cnn(C)c5)c4n3)c2)s1 [Compound 583, (S)-2-methyl-N-(3-(1-((7-(1-methyl-1H-pyrazol-4-yl)-5H-pyrrolo[2,3-b]pyrazin-2-yl)amino)ethyl)phenyl)thiazole-5-carboxamide] | < 300 | < 300 |
| CCn1cc2ncc(N[C@@H](C)c3cccc(NC(=O)c4ccc(CN5CCCC6(COC6)C5)c(C)c4)c3)nc2n1 [Compound 481, (S)-4-((2-oxa-6-azaspiro[3.5]nonan-6-yl)methyl)-N-(3-(1-((2-ethyl-2H-pyrazolo[3,4-b]pyrazin-6-yl)amino)ethyl)phenyl)-3-methylbenzamide] | < 300 | < 300 |
| C[C@H](Nc1cnc2cnn(C)c2n1)c1cccc(NC(=O)c2cc(C(C)(C)C)on2)c1 [Compound 143, (S)-5-(tert-butyl)-N-(3-(1-((1-methyl-1H-pyrazolo[3,4-b]pyrazin-6-yl)amino)ethyl)phenyl)isoxazole-3-carboxamide] | < 300 | < 300 |
| CCn1cc2ncc(N[C@@H](C)c3cccc(NC(=O)c4ccc(Cn5ccnc5)c(C)c4)c3)nc2n1 [Compound 435, (S)-4-((1H-imidazol-1-yl)methyl)-N-(3-(1-((2-ethyl-2H-pyrazolo[3,4-b]pyrazin-6-yl)amino)ethyl)phenyl)-3-methylbenzamide] | < 300 | < 300 |
| C[C@H](Nc1cnc2cnn(C)c2n1)c1cccc(NC(=O)c2cnc3c(c2)OCCO3)c1 [Compound 69, (S)-N-(3-(1-((1-methyl-1H-pyrazolo[3,4-b]pyrazin-6-yl)amino)ethyl)phenyl)-2,3-dihydro-[1,4]dioxino[2,3-b] pyridine-7-carboxamide] | < 300 | < 300 |

Now from value to molecule:

| IC50 [1] [nM] | IC50 [2] [nM] | SMILES |
| --- | --- | --- |
| < 300 | < 300 | CCn1cc2ncc(N[C@@H](C)c3cccc(NC(=O)c4cnc(-n5ccnc5)c(C)c4)c3)nc2n1 [Compound 334, (S)-N-(3-(1-((2-ethyl-2H-pyrazolo[3,4-b]pyrazin-6-yl)amino)ethyl)phenyl)-6-(1H-imidazol-1-yl)-5-methylnicotinamide] |
| < 300 | < 300 | CCn1cc2ncc(N[C@@H](C)c3cccc(NC(=O)c4ccc(CN5CCN(C)CC5)c(C)c4)c3)nc2n1 [Compound 402, (S)-N-(3-(1-((2-ethyl-2H-pyrazolo[3,4-b]pyrazin-6-yl)amino)ethyl)phenyl)-3-methyl-4-((4-methylpiperazin-1-yl)methyl)benzamide] |
| < 300 | < 300 | CCn1cc2ncc(N[C@@H](C)c3cccc(NC(=O)c4ccc(CN5CC[C@@H](O)C5)c(Cl)c4)c3)nc2n1 [Compound 483, 3-chloro-N-(3-((S)-1-((2-ethyl-2H-pyrazolo[3,4-b]pyrazin-6-yl)amino)ethyl)phenyl)-4-(((R)-3-hydroxypyrrolidin-1-yl)methyl) benzamide] |
| < 300 | 300 to 1000 | CCn1cc2ncc(N[C@@H](C)c3cccc(NC(=O)c4cnn(CCF)c4)c3)nc2n1 [Compound 298, (S)-N-(3-(1-((2-ethyl-2H-pyrazolo[3,4-b]pyrazin-6-yl)amino)ethyl)phenyl)-1-(2-fluoroethyl)-1H-pyrazole-4-carboxamide] |
| < 300 | < 300 | CCn1cc2ncc(N[C@@H](C)c3cccc(NC(=O)c4cncc(C(C)(C)F)c4)c3)nc2n1 [Compound 280, (S)-N-(3-(1-((2-ethyl-2H-pyrazolo[3,4-b]pyrazin-6-yl)amino)ethyl)phenyl)-5-(2-fluoropropan-2-yl)nicotinamide] |
| < 300 | < 300 | CCn1cc2ncc(N[C@@H](C)c3cccc(NC(=O)c4ccc(F)c(Cl)c4)c3)nc2n1 [Compound 343, (S)-3-chloro-N-(3-(1-((2-ethyl-2H-pyrazolo[3,4-b]pyrazin-6-yl)amino)ethyl)phenyl)-4-fluorobenzamide] |
| < 300 | < 300 | Cc1cncc(C(=O)Nc2cccc([C@H](C)Nc3cnc4[nH]nc(Cl)c4n3)c2)c1 [Compound 550, (S)-N-(3-(1-((3-chloro-1H-pyrazolo[3,4-b]pyrazin-5-yl)amino)ethyl)phenyl)-5-methylnicotinamide] |
| < 300 | < 300 | C[C@H](Nc1cnc2cnn(C)c2n1)c1cccc(NC(=O)c2cnn(C3CCC3)c2)c1 [Compound 151, (S)-1-cyclobutyl-N-(3-(1-((1-methyl-1H-pyrazolo[3,4-b]pyrazin-6-yl)amino)ethyl)phenyl)-1H-pyrazole-4-carboxamide] |
| < 300 | < 300 | CCn1cc2ncc(N[C@@H](C)c3cccc(NC(=O)c4ccc(OC(F)(F)F)c(Cl)c4)c3)nc2n1 [Compound 437, (S)-3-chloro-N-(3-(1-((2-ethyl-2H-pyrazolo[3,4-b]pyrazin-6-yl)amino)ethyl)phenyl)-4-(trifluoromethoxy)benzamide] |
